Patent publication US10703764B2, “Benzopiperazine compositions as BET bromodomain inhibitors” (FORMA Therapeutics, Inc., priority 2013, dated 2020)
Like-named read-outs stand apart in the source and are kept apart here.

Legend:
[1] = target: T1, BRD4 BD1 (Homo sapiens, UniProt O60885); assay: AlphaScreen binding assay, BRD4 Bromodomain 1
T1 construct: made in house
Method in brief: (§1)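 Compound dilution series were mixed with His-tagged BRD4 bromodomain and biotinylated tetra-acetylated H4 (1-21) peptide at pH 7.3 (BD1 and peptide at 50 nM, BD2 and peptide at 100 nM). Donor and acceptor beads were then added, and plates were equilibrated at least 1 h before reading. IC50 values were fitted with a four-parameter logistic model.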

[2] = test system: MV4-11 cells; assay: Oncology cell growth assay (3-day proliferation, CellTiter-Glo); format: cell-based; settings: Homo sapiens, AML cell line MV4-11, 72 hours, compounds grouped by IC50 range, read-out: MV4-11 IC50 (inhibition of proliferation, gIC50)
Method in brief: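 72 h, 37° C, 5% CO2; MV4-11, 3000 cells/well, RPMI 1640 + 10% FBS. Compound final 10, 3.3, 1.1, 0.37, 0.12, 0.041, 0.013, 0.0045 μM. Readout CellTiter-Glo luminescence; gIC50 by 4-parameter logistic fit, normalised to DMSO and no-cell background.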

[3] = target: T2, BRD4 BD2 (Homo sapiens, UniProt O60885); assay: AlphaScreen binding assay, BRD4 Bromodomain 2
T2 construct: made in house
Method in brief: as §1

SMILES	IC50 [1] [nM]	IC50 ([2]; MV4-11, 72 h) [nM]	IC50 [3] [nM]	IC50 [2] [nM]
CC(=O)N1c2ccc(-c3cnn(CC(C)(C)F)c3)cc2N(C(=O)OC(C)C)C[C@@H]1C [Example I-140, (S)-isopropyl 4-acetyl-7-(1-(2-fluoro-2-methylpropyl)-1H-pyrazol-4-yl)-3-methyl-3,4-dihydroquinoxaline-1(2H)-carboxylate]	100 to 1000	100 to 500	50 to 500	
CC(=O)N1c2ccc(-c3cnn(CCN4CCCS4(=O)=O)c3)cc2N(C(=O)OC(C)C)C[C@@H]1C [Example I-597]	100 to 1000	100 to 500	50 to 500	
CC(=O)N1c2ccc(-c3cnn(CCO)c3)cc2N(C(=O)OC2CCC(F)(F)CC2)C[C@@H]1C [Example I-34, (S)-4,4-difluorocyclohexyl 4-acetyl-7-(1-(2-hydroxyethyl)-1H-pyrazol-4-yl)-3-methyl-3,4-dihydroquinoxaline-1(2H)-carboxylate]	100 to 1000	100 to 500	50 to 500	
CC(=O)N1c2ccc(-c3ccc4c(c3)N(C)S(=O)(=O)N4)cc2N(C(=O)C2CCC2)C[C@@H]1C [Example I-1176]	100 to 1000	> 500	< 50	
CC(=O)N1c2ccc(-c3ccc4c(c3)CCN4S(C)(=O)=O)cc2N(C(=O)Oc2ccc(F)cc2)C[C@@H]1C [Example I-1026]	100 to 1000	100 to 500	50 to 500	
CC(=O)N1c2ccc(-c3cnn(C4CC4)c3)cc2N(C(=O)Oc2ccc3cccnc3c2)C[C@@H]1C [Example I-1202]	100 to 1000	100 to 500	50 to 500	
CC(=O)N1c2ccc(-c3cnn(C4CC4)c3)cc2N(c2nn(C)c3cccnc23)C[C@@H]1C [Example I-187, 1-[(2S)-6-(1-cyclopropyl-1H-pyrazol-4-yl)-2-methyl-4-{1-methyl-1H-pyrazolo[4,3-b]pyridin-3-yl}-1,2,3,4-tetrahydroquinoxalin-1-yl]ethan-1-one]	1000 to 10000	> 500	50 to 500	
C[C@H]1CN(C(=O)OCC2CC2)c2cc(-c3cnn(C4CC4)c3)ccc2N1C(=O)C1CC1 [Example I-995]	100 to 1000	100 to 500	50 to 500	
CC(=O)N1c2ccc(-c3cnn(CC4CC4(F)F)c3)cc2N(C(=O)C2CC2)C[C@@H]1C (stereo partly drawn) [Example I-148, 1-((S)-4-(cyclopropanecarbonyl)-6-(1-((2,2-difluorocyclopropyl)methyl)-1H-pyrazol-4-yl)-2-methyl-3,4-dihydroquinoxalin-1(2H)-yl)ethanone]	100 to 1000	100 to 500	50 to 500	
CCS(=O)(=O)c1ccc(-c2ccc3c(c2)N(C(=O)OC2CCOCC2)C[C@H](C)N3C(C)=O)cc1 [Example I-1214]	100 to 1000	100 to 500	50 to 500	
CC(=O)N1c2ccc(-c3ccc(C(=O)N4CCC[C@@H]4CN)cc3)cc2N(C(=O)OC(C)C)C[C@@H]1C [Example I-592]	100 to 1000	100 to 500	50 to 500	
CC(=O)N1c2ccc(-c3ccc(NS(C)(=O)=O)c(C)c3)cc2N(C(=O)C2CCC2)C[C@@H]1C [Example I-1172]	100 to 1000	100 to 500	50 to 500	
CC(C)OC(=O)N1C[C@H](C)N(C(=O)C2CC2)c2ccc(-c3cnn(C4CC4)c3)cc21 [Example I-378]	100 to 1000	100 to 500	50 to 500	
CC(=O)N1c2ccc(-c3ccc(S(C)(=O)=O)cc3)cc2N(C(=O)Oc2ccc(F)cc2)C[C@@H]1C [Example I-234]	100 to 1000	< 100	< 50	
CC(=O)N1c2ccc(-c3ccc(S(=O)(=O)n4cccn4)cc3)cc2N(C(=O)OC2CCOCC2)C[C@@H]1C [Example I-1260]	100 to 1000	> 500	50 to 500	
CC(=O)N1c2ccc(-c3cccc(N4CCCS4(=O)=O)c3)cc2N(C(=O)C2CCC2)C[C@@H]1C [Example I-1161]	1000 to 10000	> 500	50 to 500	
CC(=O)N1c2ccc(-c3cccc(S(N)(=O)=O)c3)cc2N(C(=O)OC(C)C)C[C@@H]1C [Example I-1042]	1000 to 10000	100 to 500	50 to 500	
CC(=O)N1c2ccc(-c3cnn(C4CC4)c3)cc2N(C(=O)Oc2ccc(F)cc2)C[C@@H]1C [Example I-261]	100 to 1000	100 to 500	< 50	
CC(=O)N1c2ccc(-c3ccc(C(=O)NCC(N)=O)cc3)cc2N(C(=O)OC(C)C)C[C@@H]1C [Example I-534]	100 to 1000	100 to 500	50 to 500	
CC(=O)N1c2ccc(-c3cnn(C4CC4)c3)cc2N(C(=O)OC2CCCC2)C[C@@H]1C [Example I-23, (S)-cyclopentyl 4-acetyl-7-(1-cyclopropyl-1H-pyrazol-4-yl)-3-methyl-3,4-dihydroquinoxaline-1(2H)-carboxylate]	< 100	< 100	50 to 500	
CC(=O)N1c2ccc(-c3cccc(S(=O)(=O)C4CC4)c3)cc2N(C(=O)C2CC2)C[C@@H]1C [Example I-1086]	1000 to 10000	> 500	50 to 500	

SMILES	IC50 [1] [nM]	IC50 ([2]; MV4-11, 72 h) [nM]	IC50 [3] [nM]	IC50 [2] [nM]
CC(=O)N1c2ccc(-c3cnn(C4CC4)c3)cc2N(C(=O)Oc2cccc3ccccc23)C[C@@H]1C [Example I-265]	1000 to 10000	> 500	< 50	
CC(=O)N1c2ccc(-c3cnn(C4CNC4)c3)cc2N(C(=O)Oc2ccc(F)cc2)C[C@@H]1C [Example I-1150]	100 to 1000		< 50	100 to 500
CC(C)OC(=O)N1C[C@H](C)N(C(=O)C2CC2)c2ccc(-c3cn(C)nn3)cc21 [Example I-482]	100 to 1000	> 500	> 500	
CC(=O)N1c2ccc(-c3ccc(N4CCS(=O)(=O)CC4)cc3)cc2N(C(=O)OC(C)C)C[C@@H]1C [Example I-467]	100 to 1000	100 to 500	50 to 500	
COc1cc(Cl)ccc1OC(=O)N1C[C@H](C)N(C(C)=O)c2ccc(-c3cnn(C4CC4)c3)cc21 [Example I-529]	100 to 1000	< 100	< 50	
CC(=O)N1c2ccc(-c3ccc(-c4ncco4)cc3)cc2N(C(=O)c2ccco2)C[C@@H]1C [Example I-412]	1000 to 10000	100 to 500	< 50	
CC(=O)N1c2ccc(-c3cccc(NS(C)(=O)=O)c3)cc2N(C(=O)OC2CCCCC2)C[C@@H]1C [Example I-1221]	100 to 1000	100 to 500	50 to 500	
CC(=O)N1c2ccc(-c3cnn(C4CC4)c3)cc2N(C(=O)Oc2ccc(C)nc2C)C[C@@H]1C [Example I-1190]	100 to 1000	> 500	50 to 500	
CC(=O)N1c2ccc(-c3ccc(N(C)S(C)(=O)=O)cc3)cc2N(C(=O)OC(C)C)C[C@@H]1C [Example I-346]	100 to 1000	100 to 500	50 to 500	
CC(=O)N1c2ccc(-c3cccc(S(=O)(=O)C4CC4)c3)cc2N(C(=O)OC2CCCCC2)C[C@@H]1C [Example I-1243]	100 to 1000	100 to 500	50 to 500	
CCN(CC)S(=O)(=O)c1cc(-c2ccc3c(c2)N(C(=O)OC2CCOCC2)C[C@H](C)N3C(C)=O)ccc1OC [Example I-1258]	100 to 1000	100 to 500	50 to 500	
CC(C)OC(=O)N1C[C@H](C)N(C(=O)C2CC2)c2ccc(-c3cnn(CC4COC4)c3)cc21 [Example I-643]	100 to 1000	100 to 500	50 to 500	
CNC(=O)N1c2ccc(-c3ccc(S(C)(=O)=O)cc3)cc2N(C(=O)c2ccco2)C[C@@H]1C [Example I-988]	1000 to 10000	> 500	50 to 500	
CC(=O)N1c2ccc(-c3cnn(CCO)c3)cc2N(c2nn(C)c3cc(F)ccc23)C[C@@H]1C [Example I-188, 1-[(2S)-4-(6-fluoro-1-methyl-1H-indazol-3-yl)-6-[1-(2-hydroxyethyl)-1H-pyrazol-4-yl]-2-methyl-1,2,3,4-tetrahydroquinoxalin-1-yl]ethan-1-one]	100 to 1000	100 to 500	< 50	
CC(=O)N1c2ccc(-c3cnn(C4CC4)c3)cc2N(C(=O)Oc2ccccc2)C[C@@H]1C [Example I-256]	100 to 1000	< 100	< 50	
COc1ccccc1OC(=O)N1C[C@H](C)N(C(C)=O)c2ccc(-c3cnn(C4COC4)c3)cc21 [Example I-3, (S)-2-methoxyphenyl 4-acetyl-3-methyl-7-(1-(oxetan-3-yl)-1H-pyrazol-4-yl)-3,4-dihydroquinoxaline-1(2H)-carboxylate]	100 to 1000	< 100	50 to 500	
CC(=O)N1c2ccc(-c3ccc(S(C)(=O)=O)c(F)c3)cc2N(C(=O)OC(C)C)C[C@@H]1C [Example I-1085]	1000 to 10000	> 500	50 to 500	
CC(=O)N1c2ccc(-c3cccc(S(=O)(=O)C4CC4)c3)cc2N(C(=O)OC(C)C)C[C@@H]1C [Example I-1089]	100 to 1000	100 to 500	50 to 500	
CC(=O)N1c2ccc(-c3ccc(S(=O)(=O)CC(C)C)cc3)cc2N(C(=O)OC2CCOCC2)C[C@@H]1C [Example I-1240]	100 to 1000	100 to 500	50 to 500	
CCOC(=O)N1C[C@H](C)N(C(C)=O)c2ccc(-c3cccc(N4CCCS4(=O)=O)c3)cc21 [Example I-1162]	100 to 1000	> 500	50 to 500	
